Data reported in patent publication US8242280B2, “Fused ring heterocycle kinase modulators” (SGX Pharmaceuticals, Inc., priority 2007, dated 2012).

Experiments:
[1] = target: T1, unphosphorylated T315I Abl kinase domain (Mus musculus, UniProt P00520, T315I); test: c-Abl T315I 0P bioassay (pyruvate kinase/lactate dehydrogenase coupled enzyme assay); type: biochemical; conditions: zero phosphorylation state (0P), 10 μM ATP, read-out: AbI T315I 0P IC50
T1 construct: purified and unphosphorylated T315I Abl kinase domain; made in house; host or cells: E. coli BL21(DE3) (Codon+RIL or pSA0145 strain)
T1 sequence (P00520 242-493 T315I limits assumed): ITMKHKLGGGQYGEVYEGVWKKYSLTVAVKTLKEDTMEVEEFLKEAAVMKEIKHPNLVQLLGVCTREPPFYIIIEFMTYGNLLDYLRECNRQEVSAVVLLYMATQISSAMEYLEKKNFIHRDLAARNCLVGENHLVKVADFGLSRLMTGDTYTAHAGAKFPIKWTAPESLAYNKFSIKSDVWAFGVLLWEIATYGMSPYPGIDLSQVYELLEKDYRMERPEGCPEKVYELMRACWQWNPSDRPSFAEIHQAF

Ba/F3 cells, ABL1 WT = Ba/F3 cells, ABL1 WT (Homo sapiens, UniProt P00519); test: 96-well XTT cell survival assay, Ba/F3 ABL1 WT; type: cell-based; conditions: 72 hours, read-out: ABL1 WT XTT [Ba/F3] IC50
Outline: (§1)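 Ba/F3 cells carrying wild-type or T315I ABL1 were seeded at 5000-8000 per well with graded compound concentrations in duplicate and grown 72 hours at 37° C. Survival was read by XTT/PMS reduction after a further 2-6 h, as absorbance at 405 nm with 650 nm background correction.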

Ba/F3 cells, ABL1 T315I = Ba/F3 cells, ABL1 T315I (Homo sapiens, UniProt P00519, T315I, cells depend on it); test: 96-well XTT cell survival assay, Ba/F3 ABL1 T315I; type: cell-based; conditions: 72 hours, read-out: ABL1 T315I XTT [Ba/F3] IC50
Outline: as §1

SMILES | IC50 [1] [µM] | GI50 (Ba/F3 cells, ABL1 WT) [µM] | GI50 (Ba/F3 cells, ABL1 T315I) [µM]
COc1ccccc1-c1n[nH]c2ncc(-c3cccc(C(O)C(=O)NCCN(C)C)c3)cc12 (stereo not drawn) | < 0.05 | < 1 | > 1
COc1ccccc1-c1n[nH]c2ncc(-c3cccc(C(O)CO)c3)cc12 (stereo not drawn) | < 0.05 | < 1 | > 1
COc1ccccc1-c1c[nH]c2ncc(-c3cccc(C(O)CN)c3)cc12 (stereo not drawn) | < 0.05 | > 1 | > 1
CNC(=O)C(O)c1cccc(-c2cnc3[nH]nc(-c4ccccc4OC)c3c2)c1 (stereo not drawn) | < 0.05 | < 1 | < 1
COc1ccccc1-c1n[nH]c2ncc(-c3cccc(C(O)C(=O)N4CC(O)C4)c3)cc12 (stereo not drawn) | < 0.05 | > 1 | > 1
COc1ccccc1-c1c[nH]c2ncc(-c3cccc(C(O)C(=O)N(C)C)c3)cc12 (stereo not drawn) | < 0.05 | < 1 | < 1
COc1ccccc1-c1c[nH]c2ncc(-c3cccc(C(O)C(=O)N(C)CCN(C)C)c3)cc12 (stereo not drawn) | < 0.05 | < 1 | < 1
COc1ccccc1-c1c[nH]c2ncc(-c3cccc(C(O)C(=O)N4CC(O)C4)c3)cc12 (stereo not drawn) | < 0.05 | < 1 | > 1
COc1ccccc1-c1n[nH]c2ncc(-c3cccc(C(O)C(N)=O)c3)cc12 (stereo not drawn) | < 0.05 | < 1 | < 1
COc1ccccc1-c1n[nH]c2ncc(-c3cccc(C(O)C(=O)N(C)C4CCN(C)C4)c3)cc12 (stereo not drawn) | < 0.05 | < 1 | < 1
COc1ccccc1-c1n[nH]c2ncc(-c3cccc(C(O)C(=O)N(C)C4CCS(=O)(=O)C4)c3)cc12 (stereo not drawn) | < 0.05 | < 1 | > 1
COc1ccccc1-c1c[nH]c2ncc(-c3cccc(C(N)C(=O)N(C)C)c3)cc12 (stereo not drawn) | < 0.05 | < 1 | < 1
COc1ccccc1-c1c[nH]c2ncc(-c3cccc(C(N)C(=O)N(C)CCN(C)C)c3)cc12 (stereo not drawn) | < 0.05 | > 1 | > 1
CN(C)C(=O)C(O)c1cncc(-c2cnc3[nH]cc(-c4cccc(Cl)c4)c3c2)c1 (stereo not drawn) [drawing 431] | < 0.05 | < 1 | < 1
CN(C)C(=O)C(O)c1cncc(-c2cnc3[nH]cc(-c4ccnn4C)c3c2)c1 (stereo not drawn) [drawing 464] | 0.05 to 0.5 | > 1 | > 1
CN(C)C(=O)C(O)c1cncc(-c2cnc3[nH]cc(-c4ccnn4C)c3c2)c1 (stereo not drawn) [drawing 465] | < 0.05 | > 1 | > 1
